Results taken from article PMC10152663, “SEC14-GOLD protein PATELLIN2 binds IRON-REGULATED TRANSPORTER1 linking root iron uptake to vitamin E” (Plant Physiology, 2022).

Biological target: T1, PATELLIN2 (PATL2) (Arabidopsis thaliana, UniProt Q56ZI2)
T1 construct: Strep-tagged PATL2 (full length), recombinant from E. coli
T1 sequence (Q56ZI2 2-683): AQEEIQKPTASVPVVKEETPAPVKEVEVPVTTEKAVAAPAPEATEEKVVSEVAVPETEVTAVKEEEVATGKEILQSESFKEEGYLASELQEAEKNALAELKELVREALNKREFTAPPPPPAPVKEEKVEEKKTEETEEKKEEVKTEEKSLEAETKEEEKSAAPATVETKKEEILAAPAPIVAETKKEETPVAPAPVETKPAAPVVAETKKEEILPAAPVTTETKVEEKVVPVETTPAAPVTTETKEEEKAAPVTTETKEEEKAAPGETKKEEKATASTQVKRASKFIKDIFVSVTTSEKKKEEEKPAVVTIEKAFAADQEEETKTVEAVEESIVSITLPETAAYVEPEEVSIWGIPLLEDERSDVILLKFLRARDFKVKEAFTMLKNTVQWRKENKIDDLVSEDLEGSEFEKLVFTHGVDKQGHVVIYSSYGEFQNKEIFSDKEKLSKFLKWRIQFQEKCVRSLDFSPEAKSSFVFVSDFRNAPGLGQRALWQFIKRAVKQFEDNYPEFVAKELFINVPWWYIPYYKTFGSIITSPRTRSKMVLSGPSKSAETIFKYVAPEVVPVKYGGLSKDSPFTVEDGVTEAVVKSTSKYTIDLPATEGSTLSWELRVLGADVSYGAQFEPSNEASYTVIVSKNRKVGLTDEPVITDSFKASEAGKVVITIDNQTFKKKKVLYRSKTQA
Test: spectrofluorimetric titration of NBD fluorescence with […] purified protein
Assay type: binding

Work on NBD-α-tocopherol [NBD-Toc] yielded a Kd of 86 nM.
